Measurements published in patent US11883387B2, “PqsR inverse agonists” (HELMHOLTZ-ZENTRUM FÜR INFEKTIONSFORSCHUNG GMBH, priority 2018, dated 2024).
In brackets after ≈: the same amount, converted by molar mass.

What was measured:
[1] = tested on: production of signal molecules HHQ and PQS; settings: inhibitor targeting the enzyme PqsA; read-out: IC50 for reduction of production of signal molecules HHQ and PQS; cited from earlier work
[2] = tested on: P. aeruginosa pyocyanin production; test: Pyocyanin assay; format: cell-based, P. aeruginosa PA14; settings: Pseudomonas aeruginosa, PA14, 16 h, read-out: IC50-value towards pyocyanin production, PA14 in PPGAS medium, 16 h
Method in brief: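 PA14 in PPGAS medium from OD600 0.02 grown 16 h at 37 °C, 200 rpm, with compounds. Pyocyanin extracted with chloroform, back-extracted into 0.2 M HCl, OD520 normalised to OD600.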

PqsR = PqsR (Pseudomonas aeruginosa, UniProt Q9I4X0); test: E. coli based β-galactosidase reporter gene assay (PqsR inverse agonistic activity); format: cell-based; parameters: expressed in transfected cells; host or cells: Escherichia coli DH5α
Sequence of PqsR (Q9I4X0 whole entry): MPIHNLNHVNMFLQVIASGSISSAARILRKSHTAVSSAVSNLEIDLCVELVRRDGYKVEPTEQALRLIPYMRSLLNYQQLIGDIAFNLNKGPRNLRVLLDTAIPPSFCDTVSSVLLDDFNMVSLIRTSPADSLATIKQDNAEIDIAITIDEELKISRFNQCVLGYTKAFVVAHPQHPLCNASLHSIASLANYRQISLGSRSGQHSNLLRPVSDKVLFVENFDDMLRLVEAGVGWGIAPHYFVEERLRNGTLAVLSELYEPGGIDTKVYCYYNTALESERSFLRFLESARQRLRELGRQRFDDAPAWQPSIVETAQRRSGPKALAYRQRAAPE
Method in brief: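 E. coli DH5α carrying pEAL08-2 (tac-driven pqsR with pqsA-lacZ) was grown to OD600 0.2 and incubated with 0.001–10 μM compound plus 50 nM PQS for 2.5 h at 37 °C. β-Galactosidase activity was measured by ONPG conversion in permeabilized cells and normalized between the no-PQS and solvent controls. IC50 came from concentration variation.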

HEK293 cells = test: Cytotoxicity (MTT) toward HEK293; format: cell-based; settings: Homo sapiens, 48 h, upper class: or at solubility maximum, read-out: IC50-value towards HEK293
Experimental: (§1) To obtain information regarding the toxicity of our compounds, their impact on the viability of human cells was investigated. HepG2 and HEK293 cells (2×10^5 per well) were seeded in 24-well, flat-bottomed culture plates. 24 h after seeding the cells the incubation was started by the addition of compounds in a final DMSO concentration of 1%. The living cell mass was determined 48 h after treatment with compounds by adding 0.1 volumes of 3-(4,5-dimethylthiazol-2-yl)-2,5-diphenyltetrazolium bromide (MTT) solution (5 mg per mL sterile PBS) (Sigma, St. Louis, MO) to the wells. After incubating the cells for 30 min at 37° C. (atmosphere containing 5% CO2), MTT crystals were dissolved in a solution containing 10% SDS and 0.5% acetic acid in DMSO. The optical density (OD) of the samples was determined photometrically at 570 nm in a FLUOstar Omega plate reader (BMG labtech, Ortenberg, Germany). To obtain inhibition values for each sample, their ODs were related to those of DMSO controls.

[3] = Kinetic Turbidimetric Aqueous Solubility at room temperature for 5 min; format: physicochemical; settings: PBS buffer, kinetic from dmso stock, 2% DMSO
Method in brief: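 Compound diluted in PBS across typically 0.4–200 μM (final DMSO 2%), held 5 min at room temperature. Turbidity read as absorbance at 620 nm against vehicle control. Four-parameter sigmoidal fit of normalized absorbances with AUC calculation gives Log S.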

HepG2 cells = test: Cytotoxicity (MTT) toward HepG2; format: cell-based; settings: Homo sapiens, 48 h, upper class: or at solubility maximum, read-out: IC50-value towards HepG2
Experimental: as §1

[4] = Metabolic stability in mouse liver microsomes (MLM); format: in vitro ADME; settings: 1 μM compound, 0.5 mg/mL MLM, 1 mM NADPH, 37° C., read-out: half-life (t1/2) towards MLM
Experimental: For the evaluation of phase I metabolic stability, the compound (1 μM) was incubated with 0.5 mg/mL MLM (Corning) and 1 mM NADPH at 37° C. for 0, 5, 10, 15 and 30 min. The metabolic stability of Verapamil, Diphenhydramine and Benzydamine (1 μM each) were determined in parallel to confirm the enzymatic activity of the MLM. The incubation was stopped by addition of 2 volumes of acetonitrile containing internal standard (1 μM Leucine Enkephaline). Samples were centrifuged (15 min, 3,500 rpm). Concentration of the remaining test compound at the different time points was analyzed by HPLC-MS/MS and used to determine half-life (t1/2).

[5] = Metabolic stability against human hepatic S9 fraction; format: in vitro ADME
Experimental: For the evaluation of combined phase I and phase II metabolic stability, the compound (1 μM) was incubated with 1 mg/mL pooled human liver S9 fraction (BD Gentest), 2 mM NADPH regenerating system, 1 mM UDPGA, 10 mM MgCl2 and 0.1 mM PAPS at 37° C. for 0, 5, 15, 30 and 60 min. The metabolic stability of Testosterone (1 μM) and 7-hydroxycoumarin (1 μM) were determined in parallel to confirm the enzymatic activity of the S9 fraction. The incubation was stopped by precipitation of S9 enzymes with 2 volumes of cold acetonitrile containing internal standard (750 nM Diphenhydramine). Samples were stored on ice for 10 min and precipitated protein was removed by centrifugation (10 min, 4° C., 17,000 g). Concentration of the remaining test compound at the different time points was analyzed by LC-MS/MS (TSQ Quantum Access MAX, Thermo Fisher, Dreieich, Germany) and used to determine half-life (t/2).

[6] = Turbidimetric Aqueous Solubility at 37° C. for 2 h; format: physicochemical; settings: aqueous buffer, kinetic from dmso stock, 1% DMSO in buffer, estimated precipitation range
Experimental: Turbidimetric Aqueous Solubility at 37° C. for 2 h. Test compound was diluted in buffer to give a range of concentrations (typically 1, 3, 10, 30 and 100 μM, final DMSO concentration 1%) and incubated at 37° C. for 2 hr. Absorbance was measured at a wavelength of 620 nm and the solubility was estimated from the concentration of test compound that produces an increase in absorbance above the vehicle control (i.e., 1% DMSO in buffer). An estimated precipitation range (lower and upper bound) was provided as result.

[7] = pooled human liver S9 fraction, 1 μM compound, 1 mg/mL pooled human liver S9, phase I and II cofactors, 37° C., read-out: half-life (t1/2) towards human hepatic S9 fraction

SMILES | IC50 [1] [µM] | IC50 [2] [µM] | IC50 (PqsR) [µM] | IC50 (HEK293 cells) [µM] | solubility at 5 min [3] [µM] | IC50 (HepG2 cells) [µM] | half-life at 1 μM [4] [h] | half-life at 1 μM ([5]; human, s9) [h] | half-life at 1 μM [5, 7] [h] | solubility at 5 min ([3]; aqueous buffer) [µM] | solubility at 2 h [6] [µM]
Nc1cccc(F)c1C(=O)O [Compound 6FABA] | ~100 |  |  |  |  |  |  |  |  |  | 
FC(F)(F)Oc1ccc(-n2cc(CNc3ccnc(C(F)(F)F)c3)nn2)cc1 [Compound 012, N-((1-(4-(Trifluoromethoxy)phenyl)-1H-1,2,3-triazol-4-yl)methyl)-2-(trifluoromethyl)pyridin-4-amine] |  | 1 to 5 | ≤ 0.05 | 25 to 50 |  |  |  |  |  |  | 
FC(F)(F)Oc1ccc(-n2cc(CNc3ccnc(C(F)(F)F)c3)nn2)cc1Cl [Compound 022, N-((1-(3-Chloro-4-(trifluoromethoxy)phenyl)-1H-1,2,3-triazol-4-yl)methyl)-2-(trifluoromethyl) pyridin-4-amine] |  | 0.251 to 1 | ≤ 0.05 | 25 to 50 | > 25 | 25 to 50 | 0.517 to 1 |  |  |  | 
Fc1cc(-n2cc(CNc3ccnc(C(F)(F)F)c3)nn2)ccc1Oc1ccccc1 [Compound 028, N-((1-(3-fluoro-4-phenoxyphenyl)-1H-1,2,3-triazol-4-yl)methyl)-2-(trifluoromethyl)pyridin-4-amine] |  | 0.251 to 1 | ≤ 0.05 | 25 to 50 |  | 25 to 50 |  |  |  |  | 
FC(F)(F)c1cc(NCc2cnc(-c3ccc(Oc4ccccc4)cc3)s2)ccn1 [Compound 071, N-((2-(4-Phenoxyphenyl)thiazol-5-yl)methyl)-2-(trifluoromethyl)pyridin-4-amine] |  | 0.251 to 1 | ≤ 0.05 | 25 to 50 |  | 25 to 50 |  | > 1 |  |  | 
FC(F)(F)c1cc(NCc2cnc(-c3ccc(Cl)cc3)s2)ccn1 [Compound 072, N-((2-(4-Chlorophenyl)thiazol-5-yl)methyl)-2-(trifluoromethyl)pyridin-4-amine] |  | 0.251 to 1 | 0.051 to 0.25 |  | > 25 | 25 to 50 | > 1 |  | > 1 |  | 
N#Cc1cc(NCc2cnc(-c3ccc(Oc4ccccc4)cc3)s2)ccn1 [Compound 076, 4-(((2-(4-Phenoxyphenyl)thiazol-5-yl)methyl)amino)picolinonitrile] |  | ≤ 0.25 | ≤ 0.05 |  |  |  | > 1 |  | > 1 |  | 
COc1ccc(-c2ncc(CNc3ccnc(C#N)c3)s2)cc1Cl [Compound 077, 4-(((2-(3-Chloro-4-methoxyphenyl)thiazol-5-yl)methyl)amino)picolinonitrile] |  | ≤ 0.25 | ≤ 0.05 |  | > 10 | 25 to 50 |  |  |  |  | 
FC(F)(F)c1cc(NCc2csc(-c3ccc(Oc4ccccc4)cc3)n2)ccn1 [Compound 080, N-((2-(4-Phenoxyphenyl)thiazol-4-yl)methyl)-2-(trifluoromethyl)pyridin-4-amine] |  | 1 to 5 | ≤ 0.05 | 25 to 50 | > 10 | 25 to 50 |  |  |  |  | 
CC(C)Oc1ccc(-c2nc(CNc3ccnc(C(F)(F)F)c3)cs2)cc1 [Compound 087, N-((2-(4-Isopropoxyphenyl)thiazol-4-yl)methyl)-2-(trifluoromethyl)pyridin-4-amine] |  | ≤ 0.25 | ≤ 0.05 |  | > 10 |  |  |  | > 1 |  | 
FC(F)(F)c1cc(NCc2ccc(-c3ccc(Oc4ccccc4)cc3)cn2)ccn1 [Compound 097, N-((5-(4-phenoxyphenyl)pyridin-2-yl)methyl)-2-(trifluoromethyl)pyridin-4-amine] |  | 0.251 to 1 | 0.051 to 0.25 | 25 to 50 | > 10 | 25 to 50 |  |  |  |  | 
CC(C)Oc1ccc(-c2ncc(CNc3ccnc(C(F)(F)F)c3)cn2)cc1Cl [Compound 108, N-((2-(3-Chloro-4-isopropoxyphenyl)pyrimidin-5-yl)methyl)-2-(trifluoromethyl)pyridin-4-amine] |  | ≤ 0.25 | ≤ 0.05 |  |  |  |  |  |  | > 25 | 10 to 30 (≈ 4.23 to 12.7 µg/mL)
Nc1cc(SCc2nc3cc(Cl)ccc3[nH]2)nc(C(F)(F)F)n1 [Compound 118, 6-(((5-Chloro-1H-benzo[d]imidazol-2-yl)methyl)thio)-2-(trifluoromethyl)pyrimidin-4-amine] |  | 1 to 5 | 0.051 to 0.25 |  |  |  |  |  | > 1 |  | 
Fc1cc2nc(CSc3ccnc(C(F)(F)F)c3)[nH]c2cc1F [Compound 122, 5,6-Difluoro-2-(((2-(trifluoromethyl)pyridin-4-yl)thio)methyl)-1H-benzo[d]imidazole] |  |  | 0.251 to 1 | ≥ 50 | ≥ 100 | ≥ 50 |  |  |  |  | 
Nc1cc(SCc2nc3cc(Oc4ccccc4)ccc3[nH]2)nc(C(F)(F)F)n1 [Compound 125, 6-(((5-Phenoxy-1H-benzo[d]imidazol-2-yl)methyl)thio)-2-(trifluoromethyl)pyrimidin-4-amine] |  | 0.251 to 1 | ≤ 0.05 |  | > 25 |  |  |  | > 1 |  | 
FC(F)(F)c1cc(SCc2nc3cc(Oc4ccccc4)ccc3[nH]2)ccn1 [Compound 127, 5-Phenoxy-2-(((2-(trifluoromethyl)pyridin-4-yl)thio)methyl)-1H-benzo[d]imidazole] |  | ≤ 0.25 | ≤ 0.05 | 25 to 50 | > 10 | 25 to 50 |  |  |  |  | 
Cc1cccc(Oc2ccc3[nH]c(CSc4cc(N)nc(C(F)(F)F)n4)nc3c2)c1 [Compound 128, 6-(((5-(m-Tolyloxy)-1H-benzo[d]imidazol-2-yl)methyl)thio)-2-(trifluoromethyl)pyrimidin-4-amine] |  |  | ≤ 0.05 | 25 to 50 | > 25 | 25 to 50 |  |  |  |  | 
Nc1cc(SCc2nc3cc(Oc4cccc(F)c4)ccc3[nH]2)nc(C(F)(F)F)n1 [Compound 129, 6-(((5-(3-Fluorophenoxy)-1H-benzo[d]imidazol-2-yl)methyl)thio)-2-(trifluoromethyl)pyrimidin-4-amine] |  |  | ≤ 0.05 | 25 to 50 |  | 25 to 50 | 0.517 to 1 |  |  |  | 
FC(F)(F)c1cc(NCc2nc3ccc(Oc4ccccc4)cc3o2)ccn1 [Compound 134, N-((6-Phenoxybenzo[d]oxazol-2-yl)methyl)-2-(trifluoromethyl)pyridin-4-amine] |  |  | 0.251 to 1 |  | ≥ 100 |  |  |  | > 1 |  | 
